Experimental data as given in paper PMC4019636, “Rational Design of Berberine-Based FtsZ Inhibitors with Broad-Spectrum Antibacterial Activity” (PLoS ONE, 2014).
Where two headings read alike, the source gives them in different places.

Legend:
Assay type in all cases: cell-based
E. faecium ATCC 49624 = experiment: Antimicrobial susceptibility assay (broth microdilution MIC); settings: Enterococcus faecium, ATCC49624; E. faecium ATCC 49624; brain heart infusion broth, 18 h at 37°C; growth inhibited by ≥90%; read-out: MIC
Excerpt: (§1) The bacterial strains S. aureus ATCC 29213, S. aureus ATCC 29247, S. aureus ATCC BAA-41, E. faecium ATCC 49624, E. faecium ATCC 700221, E. faecalis ATCC 29212, S. epidermidis ATCC 12228, E. coli ATCC 25922, and K. pneumoniae ATCC BAA-1144 used in the antimicrobial susceptibility assays were purchased from American Type Culture Collection (ATCC, USA). B. subtilis strain 168 was already available in our in-house collection. E. coli JM109 WM647 was kindly provided by Dr. W. Margolin (University of Texas-Houston Medical School). FM 4–64 was purchased from Invitrogen (Eugene, Oregon). All other chemicals and reagents were purchased from Sigma-Aldrich. Stock solutions were prepared in DMSO. The final percentage of DMSO in the assays was 1% (v/v) for all experiments.
(§2) Antimicrobial susceptibility tests were conducted in 96-well microplates using the broth microdilution procedure described in the Clinical and Laboratory Standards Institute (CLSI) guidelines. […] After incubation for 18 h at 37°C, the absorbance at 600 nm (A600) was recorded using a microplate reader (Bio-Rad laboratory Ltd., UK) and the percentage of bacterial cell inhibition with respect to vehicles (1% DMSO) was calculated. The MIC was defined as the lowest compound concentration at which the growth of bacteria was inhibited by ≥90%. Three independent assays were performed for each test.

E. faecium ATCC 700221 = experiment: as above; settings: Enterococcus faecium, ATCC700221; E. faecium ATCC 700221 (vancomycin-resistant); brain heart infusion broth, 18 h at 37°C; growth inhibited by ≥90%; read-out: MIC
Excerpt: as §1, §2

B. subtilis 168 = experiment: as above; settings: Bacillus subtilis; B. subtilis 168; Mueller Hinton broth, 18 h at 37°C; growth inhibited by ≥90%; read-out: MIC
Excerpt: as §1
(§3) Antimicrobial susceptibility tests were conducted in 96-well microplates using the broth microdilution procedure described in the Clinical and Laboratory Standards Institute (CLSI) guidelines. Cation-adjusted Mueller Hinton broth for S. aureus strain ATCC 29213, methicillin-resistant S. aureus strain ATCC BAA-41 and ampicillin-resistant S. aureus strain ATCC 29247, or brain heart infusion broth for antibiotic-susceptible E. faecium strain ATCC 49624 and vancomycin-resistant E. faecium strain ATCC 700221, or Mueller Hinton broth for antibiotic-susceptible strains B. subtilis strain 168, E. faecalis strain ATCC 29212 and E. coli strain ATCC 25922 were used in the assays. After incubation for 18 h at 37°C, the absorbance at 600 nm (A600) was recorded using a microplate reader (Bio-Rad laboratory Ltd., UK) and the percentage of bacterial cell inhibition with respect to vehicles (1% DMSO) was calculated. The MIC was defined as the lowest compound concentration at which the growth of bacteria was inhibited by ≥90%. Three independent assays were performed for each test.

E. faecalis ATCC 29212 = experiment: as above; settings: Enterococcus faecalis, ATCC29212; E. faecalis ATCC 29212; Mueller Hinton broth, 18 h at 37°C; growth inhibited by ≥90%; read-out: MIC
Excerpt: as §1, §3

S. aureus ATCC 29213 = experiment: as above; settings: Staphylococcus aureus, ATCC29213; S. aureus ATCC 29213; cation-adjusted Mueller Hinton broth, 18 h at 37°C; growth inhibited by ≥90%; read-out: MIC
Excerpt: as §1, §3

[1] = tested on: antibiotic-susceptible and antibiotic-resistant S. aureus strains; experiment: Antimicrobial susceptibility assay, summary over S. aureus strains; settings: Staphylococcus aureus
Excerpt: as §1, §3

[2] = tested on: vancomycin-susceptible and vancomycin-resistant E. faecium; experiment: Antimicrobial susceptibility assay, summary over E. faecium strains; settings: Enterococcus faecium
Excerpt: as §1, §3

[3] = tested on: Gram-negative strains E. coli and K. pneumoniae (expressing AmpC β-lactamase); experiment: Antimicrobial susceptibility assay, summary over Gram-negative strains; settings: Escherichia coli, read-out: MIC values
Excerpt: as §1, §3

[4] = Gram-negative strains E. coli and K. pneumoniae

Row | SMILES | MIC (E. faecium ATCC 49624) [µg/mL] | MIC (E. faecium ATCC 700221) [µg/mL] | MIC (B. subtilis 168) [µg/mL] | MIC (E. faecalis ATCC 29212) [µg/mL] | MIC (S. aureus ATCC 29213) [µg/mL] | MIC [1] [µg/mL] | MIC [2] [µg/mL] | MIC [3, 4] [µg/mL] | MIC [3] [µg/mL]
1 | COc1ccc2cc3[n+](cc2c1OCCCOc1ccc([N+](=O)[O-])cc1)CCc1cc2c(cc1-3)OCO2 [Compound 5] | 8 | 8 | 8 | 8 | 2 | 2 to 8 | 4 to 16 | 32 to 128 | 
2 | COc1ccc2cc3[n+](cc2c1OCCCOc1ccccc1)CCc1cc2c(cc1-3)OCO2 [Compound 1] | 8 | 8 | 8 | 16 | 4 | 2 to 8 | 4 to 16 | 32 to 128 | 
3 | COc1ccc2cc3[n+](cc2c1OCCCCOc1ccccc1)CCc1cc2c(cc1-3)OCO2 [Compound 6] | 8 | 8 | 8 | 16 | 4 | 2 to 8 | 4 to 16 | 32 to 128 | 
4 | COc1ccc2cc3[n+](cc2c1OCCCOc1ccc(Cl)cc1)CCc1cc2c(cc1-3)OCO2 [Compound 2] | 4 | 4 | 4 | 4 | 2 | 2 to 8 | 4 to 16 | 32 to 128 | 
5 | COc1ccc(OCCCOc2c(OC)ccc3cc4[n+](cc23)CCc2cc3c(cc2-4)OCO3)cc1 [Compound 3] | 16 | 16 | 8 | 32 | 8 | 2 to 8 | 4 to 16 | 32 to 128 | 
6 | COc1ccc2cc3[n+](cc2c1OCCCOc1ccccc1C)CCc1cc2c(cc1-3)OCO2 [Compound 4] | 8 | 8 | 8 | 8 | 4 | 2 to 8 | 4 to 16 | 32 to 128 | 
7 | COc1ccc2cc3[n+](cc2c1OC)CCc1cc2c(cc1-3)OCO2 [Berberine, Berberine chloride] | > 196 | > 196 | 128 | > 196 | 128 | 128 to 196 | > 196 |  | > 500
